# According to article PMC9241302, “Identification of 2-(4-N,N-Dimethylaminophenyl)-5-methyl-1-phenethyl-1H-benzimidazole targeting HIV-1 CA capsid protein and inhibiting HIV-1 replication in cellulo” (BMC Pharmacology & Toxicology, 2022):
# Read-outs that look alike come from different tables or passages of the source.
# Key:
# [1] = Liver fraction stability (thin-layer chromatography); assay type: in vitro ADME, rat
# Description: For the determination of liver fraction stability, rat liver microsomal and cytosolic proteins were used (MOLTOX™ manufactures products, North Carolina, US). Rat liver microsomal and cytosolic proteins were used according to the manufacturer’s recommendations and the methodology previously described. […] The final concentration of 696 in the aqueous medium was 100 µM and was prepared from a stock solution in DMSO. The solutions were further homogenized and incubated at 37 °C for 1 to 4 h following the OECD recommendation for drug development. After that, thin-layer chromatography of ethyl acetate extracts was performed to evaluate the presence of metabolites.
# [2] = Cytotoxicity in TZM-bl cells (MTT); assay type: cell-based, human; conditions: human, TZM-bl cells; 48hs
# Description: (§1) TZM-bl cells, U87-CD4-CCR5, murine macrophages (J774.1), and THP-1 monocytes (ATCC®TIB-202™) were grown following ATCC recommendations. Cells were seeded in a 96-well plate (10^4 cells in 200 µL culture medium) and incubated at 37 °C in a 5% CO2 atmosphere for 48 h, to allow cell adhesion before drug testing. For stimulation (THP-1 monocytes), cells were incubated with 100 nM of phorbol 12-myristate 13-acetate (PMA) for 48 h. […] A vehicle for control (0.4% DMSO) and negative wells (cells in medium) was used in each test. […] After removing the medium, formazan crystals were dissolved in 180 µL of DMSO and 20µL of MTT buffer (0.1 M glycine, 0.1 M NaCl, 0.5 mM EDTA, pH 10.5), and the absorbance at 560 nm was measured. […] Tests were performed in triplicate, in two independent experiments.
# TZM-bl cells = test: Cytotoxicity in TZM-bl cells (MTT); assay type: cell-based, human; conditions: Homo sapiens, TZM-bl; Table 1, 696, 48hs
# Description: as §1
# HIV-1 NL4-3 Ba-L = test: microbe, parasite or virus in culture; assay type: cell-based
# Description: Compounds were first dissolved in DMSO to reach a concentration of 20 mM. They were further diluted to a 200 µM working stock and then further diluted to reach a starting concentration of 10 µM in the culture plate. U87-CD4-CCR5 cells were seeded in quadruplicate at 4000 cells/well in a final volume of 100 µL. The next day, 24 µL of the compound was added in serial 1:2 dilutions to the cells. Two hours later, 25 µL of infectious virus (NL4-3 Ba-L) were added to the cells with a TCID50 of 250. AZT at 10 µM was included as an inhibition control. The medium was replenished in the presence of compounds once every 3 to 4 days. The supernatant was collected every 3–4 days and analyzed for virus production by an in-house p24 capture ELISA. IC50 was calculated using “Quest Graph™ IC50 Calculator” (AAT Bioquest, Inc., https://www.aatbio.com/tools/ic50-calculator). Cytotoxicity of the compound was tested on U87-CD4-CCR5 cells in parallel by MTT assay (at the same protocol as in Sect. 3.5 but after 11 days of incubation))[39].
# [3] = Cytotoxicity in U87-CD4-CCR5 cells (MTT); assay type: cell-based; conditions: human
# Description: TZM-bl cells, U87-CD4-CCR5, murine macrophages (J774.1), and THP-1 monocytes (ATCC®TIB-202™) were grown following ATCC recommendations. Cells were seeded in a 96-well plate (10^4 cells in 200 µL culture medium) and incubated at 37 °C in a 5% CO2 atmosphere for 48 h, to allow cell adhesion before drug testing. For stimulation (THP-1 monocytes), cells were incubated with 100 nM of phorbol 12-myristate 13-acetate (PMA) for 48 h. PMA was then washed and cells were left for an additional 24 h, 48 h or11 days (only U87 cells) with growth media containing compound 696 at 10, 25, 50, and 100 µM. A vehicle for control (0.4% DMSO) and negative wells (cells in medium) was used in each test. Cell viability was then assessed by measuring the mitochondria-dependent reduction of MTT (3-(4,5-dimethylthiazol-2-yl)-2,5-diphenyltetrazolium bromide) to formazan. […] After removing the medium, formazan crystals were dissolved in 180 µL of DMSO and 20µL of MTT buffer (0.1 M glycine, 0.1 M NaCl, 0.5 mM EDTA, pH 10.5), and the absorbance at 560 nm was measured. […]
# Compounds were first dissolved in DMSO to reach a concentration of 20 mM. […] The supernatant was collected every 3–4 days and analyzed for virus production by an in-house p24 capture ELISA. IC50 was calculated using “Quest Graph™ IC50 Calculator” (AAT Bioquest, Inc., https://www.aatbio.com/tools/ic50-calculator). […]
# [4] = test system: HIV-1 reverse transcription (pol viral DNA); test: qPCR quantification of reverse transcribed viral DNA in U87-CD4-CCR5 cells; assay type: cell-based; conditions: 10 µM, cells preincubated, DNA extracted 48 h post-infection
# Description: U87-CD4-CCR5 cells were plated in a 24-wells plate at 1.25 × 10^5 cells per well. […] Total DNA was extracted 48 h post-infection using the AllPrep DNA/RNA Mini Kit (Qiagen, Venlo, Netherlands). […] The following program was used in the LightCycler 480 Real-Time PCR System (Roche, Basel, Switzerland): pre-incubation: 95 °C for 3 min, pre-amplification: 2 cycles of 95 °C for 15 s and 49 °C for 15 s, amplification: 40 cycles of 95 °C for 10 s, 58 °C for 20 s, 72 °C for 30 s, melting curve stage: 95 °C for 5 s, 55 °C for 1 min and then 97 °C with acquisition every 10 °C, cooling stage: 40 °C for 10 s. Serial dilution of the 8E5 cell line which contains 1 copy of HIV-1 proviral DNA per cell was used as a standard curve for viral RT products [46]. […] Results were calculated as the number of copies of Pol per copy of β-actin. Statistical analysis was performed using an unpaired, two-tailed, Mann–Whitney test with GraphPad Prism 7.0 software. Tests were performed in quadruplicate, in two independent experiments.
# monomeric HIV-1 CA = target: T1, monomeric HIV-1 CA (Human immunodeficiency virus type 1 group M subtype B, UniProt P12493); test: Affinity for HIV-1 CA by microscale thermophoresis (MST); assay type: binding
# T1 construct: the capsid protein (CA) of the Gag polyprotein; made in house
# Description: The affinity of compound 696 for HIV-1 CA in vitro was measured by microscale thermophoresis (MST) as described previously for FIV CA [31]. Due to its intrinsic autofluorescence interfering with MST, the binding of compound 314 to CA was measured using isothermal microcalorimetry (ITC) with a Microcal iTC200 calorimeter (Malvern Instruments, Worcestershire, UK). The calorimeter cell contained 200 µL of recombinant HIV-1 CA (kind gifted by Drs Verrier and Coiffier) at 0.78 mg/mL in phosphate buffer (NaH2PO4/Na2HPO4) 50 mM pH 7.5, NaCl 100 mM, 1% DMSO [v/v]. Compound 314 at 200 µM was then injected sequentially into the calorimeter cell (injection #1: 1 µL, injections #2-#20: 2 µL) at 120 s intervals. Data were analyzed using the OriginLab8.5® software according to the manufacturer’s instructions.
structure (smiles),measurement,setting,value
"Cc1ccc2c(c1)nc(-c1ccc(N(C)C)cc1)n2CCc1ccccc1 [compound 696, 2-(4-N,N-dimethylaminophenyl)-5-methyl-1-phenethyl-1H-benzimidazole]",metabolic stability (in words),[1],high metabolic stability
same,stability under microsomal and cytosolic fraction derived from rat liver,"[1]; 100 µM, 37 °C, TLC, absence of new metabolites",stable for 4 h
same,half-life at 100 µM,"[1]; rat, rat liver microsomes, read-out: Metabolic stability, half-life (t1/2)",> 4 h
same,EC50 at 48 h,[2],> 50 µM
same,EC50,TZM-bl cells,> 25 µM
same,EC50/IC50,HIV-1 NL4-3 Ba-L,> 21
same,IC50,"HIV-1 NL4-3 Ba-L; Human immunodeficiency virus 1, U87/CD4/CCR5, 264 h, read-out: IC50, inhibition of HIV-1 replication",3 µM
same,IC50,"HIV-1 NL4-3 Ba-L; Human immunodeficiency virus 1, U87/CD4/CCR5, read-out: IC50 in U87 (μM)",2.3 ± 0.6 µM
same,inhibition of HIV-1 replication (in words),"HIV-1 NL4-3 Ba-L; U87-CD4-CCR5 cells, serial 1:2 dilutions from 10 µM",clear dose–response inhibition
same,inhibition of HIV-1 replication,"HIV-1 NL4-3 Ba-L; U87-CD4-CCR5 cells, two highest concentrations tested, after 11 days",more than 80%
same,selective activity between mammalian cells and antiviral activity,HIV-1 NL4-3 Ba-L; cytotoxicity EC50 vs antiviral IC50,at least 10 times
same,EC50 at 11 days,[3],> 50 µM
same,inhibition of HIV-1 reverse transcription (pol viral DNA by qPCR),[4],did not show any significant effect
same,Kd,monomeric HIV-1 CA,69 ± 6 µM
